Reference: US4543256A, “(-)-10,1L Methylenedioxy-N-N-propylnoraporphine and methods employing it for inhibiting the effects of epileptic seizures and for prevention and treatment of duodenal ulcers” (Northeastern University, priority 1982, dated 1985)
“Also recorded” adds a separate entry of the source. Where a name gives a salt, the structure may show the parent alone.

Key:
rats [1] = assay: Stereotyped behavior of rats (rating scale; score, onset and duration); type: in vivo, rat (male Sprague-Dawley); conditions: for Duration of Effect (stereotypy): complete when scores ≤3; for Stereotypy Score for 30 min after MDO--NPA: maximum possible 18.0, N=5
Experimental: (§1) Male Sprague-Dawley (Charles River Labs.) rats (initially 175-200 g) were housed four per cage, with free access to food and water, under controlled lighting (on 7:00 a.m. to 7:00 p.m.), constant temperature 21°-23° C. and controlled humidity (40-50%). Aporphines were administered, as described below, freshly dissolved in 1 mM citric acid mixed with 0.9% (w/v) saline (1:4, vols.); this solvent was also used as a vehicle ("placebo") control. Haloperidol was given in the same medium; 2-diethyl aminoethyl-2,2 diphenylvalerate HCl (SKF-525A) was given in saline.
Stereotyped behavior was evaluated by a trained observer according to a rating scale method reported previously (Campbell and Baldessarini, 1981a). Briefly, the ratings were as follows: 0, no stereotypy, normal locomotion; 1, discontinuous sniffing, reduced locomotion; 2, continuous sniffing, only periodic exploration; 3, continuous sniffing, mouth movements, infrequent, exploratory activity, Ratings were made each 10 min. by observation for 30 sec, typically for 60 min. (maximum score=18.0/hour).
(§2) In all experiments except those which evaluated the time-course of drug effects, rats were given an injection of vehicle and then allowed to rest for 15 min. to adapt to nonspecific arousal effects, prior to a second injection of test agent (or placebo) and immediate behavioral testing. Behavioral data were evaluated by Student's t-test and are always expressed as mean ±SEM.
Data are mean values ±SEM for N=6 rats per group given doses of each aporphine (1mg/kg/, or approximately 3 umole/kg) by orogastric intubation (P.O.), or subcutaneous (S.C.) or intraperitoneal (I.P.) injection. Stereotypy was rated for one hour as described in Methods and duration is defined as complete when scores diminished to ≤3 (out of a maximum possible score of 18).
Data are mean values ±SEM (N=4 to 8 rats per condition). […] N.D. indicates "not determined." (*) Indicates a significant difference by t-test between control and oxidase inhibitor-pretreated rats (p<0.01).
Stereotypy was rated for 60 min as described in Methods. Data are means SEM (stereotypy scores, when 18=maximum in 1 hour) for N=6 rats per group; (*) indicates p<0.0001 by t test.
Data are mean values ±SEM (N=3 to 6 rats per condition) for effects of seven aporphine compounds (R=substituents, keyed to the structure above). Full chemical names for all compounds are provided in Methods. […] Data are provided for a dose of 10 mg/kg (i.p.), although doses of 1 and 5 mg/kg were also tested.

rats [2] = assay: Locomotor (general motor) activity, electronic activity monitor; type: in vivo, rat (male Sprague-Dawley)
Experimental: as §1
Locomotor activity was evaluated by use of a printing electronic activity monitor (EAM, Stoelting Co., Chicago, IL) within a sound-attenuated chamber, typically for 60 min., as described previously (Stewart, Campbell, Sperk and Baldessarini, 1979, Psychopharmacology 60 281-289; Campbell and Baldessarini, 1981a, Psychopharmacology 73:219-222.
as §2
Data are mean values ±SEM (N=4 to 8 rats per condition). Animals were pretreated with SKF-525A (40 mg/kg, i.p.) or its vehicle 30 min before MDO-NPA (in the doses noted, from 0 to 3 mg/kg, i.p.). Activity was then monitored electronically for an hour after the low doses of MDO-NPA (data in counts/hour), or rated for stereotypy every 10 min for an hour after higher doses. N.D. indicates "not determined." (*) Indicates a significant difference by t-test between control and oxidase inhibitor-pretreated rats (p<0.01).
Data are mean values ±SEM (N=3 to 6 rats per condition) for effects of seven aporphine compounds (R=substituents, keyed to the structure above). Full chemical names for all compounds are provided in Methods. Ratings are expressed as percent of the maximum possible score (100%)=18.0) of stereotypy (Placebo-injected controls yielded scores of 4.4±2.5%); and as the percent of control locomotor activity (100%=430±86 counts/hr). Data are provided for a dose of 10 mg/kg (i.p.), although doses of 1 and 5 mg/kg were also tested.

rats [3] = assay: Catalepsy (maintenance of abnormal posture on bar); type: in vivo, rat (male Sprague-Dawley); conditions: i.p.
Experimental: as §1
Catalepsy was assessed as described in detail elsewhere (Campbell and Baldessarini, 1981a; 1981b, Life Sciences 29 1341-46). Briefly, rats were evaluated every 10 min. by timing (stopwatch) their maintenance of an abnormal posture with forelimbs on a 1 cm-diameter steel bar parallel to, and 8 cm above the bench, so that the rat rested on its hindquarters only; 60 sec. was taken as a maximum and nearly all normal untreated rats remained on the bar for less than 5 sec. […]
In all experiments except those which evaluated the time-course of drug effects, rats were given an injection of vehicle and then allowed to rest for 15 min. to adapt to nonspecific arousal effects, prior to a second injection of test agent (or placebo) and immediate behavioral testing. […]

Adenylate cyclase = Adenylate cyclase stimulation (cAMP) in rat striatal homogenates; type: biochemical; conditions: 100 μM; control (no addition) 2.38 ± 0.14; N=4
From the text: of cAMP in rat striatal homogenates; inhibition of binding of

duodenal ulcers = assay: Cysteamine-induced duodenal ulcer in the rat; conditions: for Duodenal Ulcer Intensity (Scale: 0-3): control 1.8; for Duodenal Ulcer Incidence (Positive/Total): control 10/12
[4] = 50 μg/100g s.c. once daily seven days
[5] = 100 μg/100g s.c. once daily seven days

## CCCN1CCc2cccc3c2[C@H]1Cc1ccc2c(c1-3)OCO2 [MDO-NPA, (-) 10, 11-methylenedioxy-N-n-propylnoraporphine-HCl]
Rats [1]; 1 mg/kg I.P., rated one hour, maximum 18, N=6, mean ±SEM
  Stereotypy Score: 16.5 ± 0.8
Rats [1]; 1 mg/kg I.P.
  Duration of Effect (stereotypy): 116 ± 12 min
Rats [1]; 1 mg/kg P.O.
  Duration of Effect (stereotypy): 112 ± 20 min
Rats [1]; 1 mg/kg S.C., rated one hour, maximum 18, N=6, mean ±SEM
  Stereotypy Score: 17.5 ± 0.4
Rats [1]; 1 mg/kg S.C.
  Duration of Effect (stereotypy): 106 ± 10 min
Rats [1]; 1 mg/kg i.p.
  Stereotypy Score for 30 min after MDO--NPA: 16.5 ± 1.2
Rats [1]; 1 mg/kg p.o.
  Stereotypy Score for 30 min after MDO--NPA: 15.5 ± 1.6
Rats [1]; MDO-NPA 0.3 mg/kg, haloperidol 0, 60 min, maximum 18, N=6
  Stereotypy Score: 11.6 ± 0.8
Rats [1]; MDO-NPA 0.3 mg/kg, haloperidol 0.3 mg/kg 30 min before, p<0.0001
  Stereotypy Score: 0.3 ± 0.2
Rats [1]; MDO-NPA 0.3 mg/kg, haloperidol 1.0 mg/kg 30 min before, p<0.0001
  Stereotypy Score: 0.3 ± 0.2
Rats [1]; MDO-NPA 1.0 mg/kg, haloperidol 0, 60 min, maximum 18, N=6
  Stereotypy Score: 16.6 ± 0.4
Rats [1]; MDO-NPA 1.0 mg/kg, haloperidol 0.3 mg/kg 30 min before, p<0.0001
  Stereotypy Score: 0.5 ± 0.2
Rats [1]; MDO-NPA 1.0 mg/kg, haloperidol 1.0 mg/kg 30 min before, p<0.0001
  Stereotypy Score: 1.2 ± 0.4
Rats [1]; SKF-525A 40 mg/kg i.p. before MDO-NPA 0.30 mg/kg i.p., p<0.01 vs control
  Stereotypy: 1.7 ± 0.6
Rats [1]; SKF-525A 40 mg/kg i.p. before MDO-NPA 1.0 mg/kg i.p., p<0.01 vs control
  Stereotypy: 0.8 ± 0.2
Rats [1]; SKF-525A 40 mg/kg i.p. before MDO-NPA 3.0 mg/kg i.p., p<0.01 vs control
  Stereotypy: 0.8 ± 0.5
Rats [1]; control (vehicle pretreated), MDO-NPA 0.30 mg/kg i.p., score over one hour
  Stereotypy: 12.8 ± 0.6
Rats [1]; control (vehicle pretreated), MDO-NPA 1.0 mg/kg i.p., score over one hour
  Stereotypy: 16.5 ± 0.1
Rats [1]; control (vehicle pretreated), MDO-NPA 3.0 mg/kg i.p., score over one hour
  Stereotypy: 16.2 ± 0.9
Rats [1]; i.p.
  dependence of duration of action on dose: consistent increase in duration of action with increased dose
Rats [1]; i.p., for MDO-NPA at doses above 1 μmole/kg
  duration of stereotyped behavioral effects vs other agents: exceeded that of NPA
Rats [2]; Rattus norvegicus, ip, read-out: dose producing increases in general motor activity
  minimal effective dose: > 2 µmol/kg
Rats [2]; SKF-525A 40 mg/kg i.p. 30 min before MDO-NPA 0.05 mg/kg i.p., p<0.01 vs control
  Activity: 425 ± 40 counts/hour
Rats [2]; SKF-525A 40 mg/kg i.p. 30 min before MDO-NPA 0.10 mg/kg i.p., p<0.01 vs control
  Activity: 415 ± 29 counts/hour
Rats [2]; SKF-525A 40 mg/kg i.p. 30 min before MDO-NPA 0.20 mg/kg i.p., p<0.01 vs control
  Activity: 410 ± 32 counts/hour
Rats [2]; SKF-525A 40 mg/kg i.p. 30 min before MDO-NPA 0.30 mg/kg i.p.
  Activity: 440 ± 38 counts/hour
Rats [2]; control (vehicle pretreated), MDO-NPA 0.05 mg/kg i.p.
  Activity: 190 ± 20 counts/hour
Rats [2]; control (vehicle pretreated), MDO-NPA 0.10 mg/kg i.p.
  Activity: 130 ± 30 counts/hour
Rats [2]; control (vehicle pretreated), MDO-NPA 0.20 mg/kg i.p.
  Activity: 260 ± 33 counts/hour
Rats [2]; control (vehicle pretreated), MDO-NPA 0.30 mg/kg i.p.
  Activity: 435 ± 29 counts/hour
Rats [2]; i.p., about 0.1 mg/kg
  dose of maximum effect, inhibition of locomotor activity: 0.3 µmol/kg
Rats [3]
  dose of maximum effect, catalepsy: 0.3 µmol/kg
Rats [3]; doses similar to those which inhibited general activity
  catalepsy: strong catalepsy
Adenylate cyclase
  Adenylate cyclase stimulation (cAMP): 2.92 ± 0.32 pmol/assay
Duodenal ulcers; [4]
  Duodenal Ulcer Intensity (Scale: 0-3): 0.8
  Duodenal Ulcer Incidence (Positive/Total): 4/6
Duodenal ulcers; [5]
  Duodenal Ulcer Intensity (Scale: 0-3): 0.5
  Duodenal Ulcer Incidence (Positive/Total): 3/6
Duodenal ulcers; administered orally
  effect on incidence and intensity of duodenal ulcers and gastric acid output, oral: reduces the incidence and intensity of duodenal ulcers and the gastric acid output
Duodenal ulcers; once daily for seven days before cysteamine-hydrochloride
  dose effective in preventing ulcers: 50 micrograms per hundred grams of body weight
Duodenal ulcers; rats given cysteamine
  effect on cysteamine-induced duodenal ulcers: significant prevention of experimental duodenal ulcers; also recorded: virtually abolished
Duodenal ulcers; single high dose
  effect of a single high dose on duodenal ulcers: active
